The target in data set [1] is T1, cobalamin-5′-phosphate synthase (Sinorhizobium sp, UniProt P29936).
T1 construct: made in house; host or cells: Pseudomonas denitrificans SC510 Rif^r carrying plasmid pXL1490B (own cobV gene amplified)
As to the kind of experiment: Specificity of cobalamin-5′-phosphate synthase. The data set is classed as biochemical, Pseudomonas denitrificans. As to conditions: partially purified enzyme. The protocol:
a) Assay of GDP-cobinamide: α-ribazole-5′-phosphate cobinamidephosphotransferase (or cobalamin-5′-phosphate synthase) activity. This example illustrates the assay of an activity directly linked to the pathway of biosynthesis of cobalamines. The enzyme in question is cobalamin-5′-phosphate synthase. The fractions containing the activity (approximately 5 to 10 units) are incubated in darkness at 30° C. in […] buffer pH 9.0 (500 μl) in the presence of 1 mM EDTA, 12.5 mM MgCl2, 50 μM α-ribazole 5′-phosphate and 20 μM GDP-cobinamide [in 5′-deoxy-5′-adenosyl (Ado) or coenzyme form]. After 15 min of incubation, 20 mM potassium cyanide (500 μl) is added and the solution is heated to 80° C. for 10 min. After centrifugation to remove the precipitated matter, the vitamin B12 5′-phosphate present in the supernatant is assayed as described in Example 9. One unit of cobalamin-5′-phosphate synthase is defined as the quantity of enzyme necessary for generating 1 nmol of cobalamine 5′-phosphate per h under the conditions described above.
This experiment illustrates how a P. denitrificans enzymatic activity participating in the pathway of biosynthesis of cobalamines of P. denitrificans can be partially purified. Using the assay described above, the purification of cobalamin 5′-phosphate synthase is carried out. For this purpose, in a typical purification experiment, wet cells (10 g) of strain SC510 Rif^r, into which plasmid pXL1490B has been introduced as described previously, are used. Plasmid pXL1490B is described in FIG. 38: this plasmid corresponds to the 3.85-kb SstI-SstI-BamHI fragment cloned into PKT230. This plasmid carries the P. denitrificans cobU and cobV genes. […] The SC510 Rif^r pXL1490B cells are obtained by culture in PS4 medium supplemented with lividomycin, as described above. […]
c) Specificity of cobalamin-5′-phosphate synthase. […] Intracellular α-ribazole 5′-phosphate and α-ribazole concentrations of 30 and 700 μM, respectively, were measured by HPLC during the production of cobalamins by SC510 Rif^r in PS4 medium under the culture conditions described in Example 6.1.5a).

The target in data set [2] is T2, P. denitrificans NN:DMBI PRT (Sinorhizobium sp, UniProt P29935).
T2 construct: the amino-terminal methionine is definitely excised in vivo by methionine aminopeptidase; made in house; host or cells: Pseudomonas denitrificans SC510 Rif^r carrying plasmid pXL1490B (cobU and cobV amplified)
T2 sequence (P29935 2-338 limits assumed): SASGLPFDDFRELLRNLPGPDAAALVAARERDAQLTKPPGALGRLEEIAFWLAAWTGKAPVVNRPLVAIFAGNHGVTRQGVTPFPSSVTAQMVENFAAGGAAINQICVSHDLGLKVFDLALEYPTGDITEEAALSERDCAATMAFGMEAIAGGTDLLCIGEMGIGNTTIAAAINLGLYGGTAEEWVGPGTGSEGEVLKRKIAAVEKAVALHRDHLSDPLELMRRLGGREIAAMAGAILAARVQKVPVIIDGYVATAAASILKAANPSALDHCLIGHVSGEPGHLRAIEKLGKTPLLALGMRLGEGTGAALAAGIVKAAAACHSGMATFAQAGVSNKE
As to the kind of experiment: Specificity of NN:DMBI PRT for benzimidazole substrates. The class given is biochemical, Pseudomonas denitrificans. To be noted: NaMN concentration fixed at 2 mM. As for the experimental part: a) Assay of Nicotinate-nucleotide:dimethylbenzimidazole phosphoribosyltransferase activity (FIG. 5, reaction 5). This example illustrates the assay of an enzymatic activity directly linked to the pathway of biosynthesis of cobalamins. The enzyme in question is nicotinate-nucleotide:dimethylbenzimidazole phosphoribosyl-transferase (NN:DMBI PRT) (EC 2.4.2.21). The fractions containing NN:DMBI PRT activity (approximately 5 units) are incubated at 30° C. for 8 min in 0.1 M glycine-NaOH buffer pH 9.7 (500 μl) in the presence of 1 mM NaMN (nicotinic acid mononucleotide) and 10 μM DMBI. The reaction is then stopped by heating to 80° C. for 10 min, the reaction mixture is diluted with water (4 volumes) and this solution (100 μl) is injected onto a 15-cm Nucleosil 5-C8 HPLC column eluted with a 0.1 M potassium phosphate pH 2.9/acetonitrile (93:7) mixture at a flow rate of 1 ml/min. The α-ribazole 5′-phosphate is detected and quantified by fluorimetry (excitation: 260 nm; emission >370 nm). The unit of enzymatic activity is defined as the quantity of enzyme necessary for generating 1 nmol of α-ribazole 5′-phosphate per hour under these conditions.
d) Specificity of NN:DBI PRT for DBI. […]

In a further data set the target is T3, precorrin-6x reductase (Sinorhizobium sp, UniProt P21920).
T3 construct: the amino-terminal methionine is definitely excised in vivo by methionine aminopeptidase; made in house; host or cells: Pseudomonas denitrificans SC510 Rif^r carrying plasmid pXL253 (8.7-kb EcoRI fragment, cobF to cobM, in pKT230)
T3 sequence (P21920 2-261): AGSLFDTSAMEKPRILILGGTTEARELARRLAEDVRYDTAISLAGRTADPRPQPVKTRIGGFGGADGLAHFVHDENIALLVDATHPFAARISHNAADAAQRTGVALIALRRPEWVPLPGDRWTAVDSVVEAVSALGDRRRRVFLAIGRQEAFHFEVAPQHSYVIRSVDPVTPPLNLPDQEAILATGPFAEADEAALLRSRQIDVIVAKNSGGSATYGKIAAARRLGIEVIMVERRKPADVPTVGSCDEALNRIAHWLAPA
Nature of the data set: Reaction catalysed by precorrin-6x reductase, cofactor dependence. The class given is biochemical, Pseudomonas denitrificans. As for the experimental part:
The fractions containing precorrin-6x reductase activity (approximately 0.05 unit, U) are incubated at 30° C. for 60 min in 0.1 M Tris-HCl buffer pH 7.7 (250 μl) in the presence of 1 mM EDTA, 500 μM NADPH, 25 μM [methyl-^3H]SAM (80 μCi/μmol), 4 μM precorrin-6x (Thibaut et al., 1990) and partially purified dihydroprecorrin-6x methylase (0.5 U) (see preparation below). The reaction is then stopped by heating to 80° C. for 5 min and, after centrifugation at 5000×g for 5 min, the supernatant is injected onto a DEAE-Sephadex column (containing 200 μl of gel). The column is then washed extensively with the Tris-HCl buffer, and the compounds bound are eluted with 1 M HCl (4 ml). The radio activity in this eluent is counted by liquid scintillation counting. The unit of enzymatic activity is defined as the quantity of enzyme necessary for reducing 1 nmol of precorrin-6x per h under these conditions.
When the purified enzyme (or an active fraction during purification, or even a crude enzyme extract) is incubated under the conditions of the assay of activity, but in the absence of SAM and of dihydroprecorrin-6x methylase, the product of the reaction can then be purified by HPLC in the system described for the purification of precorrin-6x (see Example 6.1.4.d). […]

For data set [3], the target named is T4, Methanobacterium ivanovii SUMT (Methanobacterium ivanovii, UniProt P29564).
T4 construct: endogenous in cells; host or cells: Methanobacterium ivanovii DSM2611 (enzyme purified to homogeneity from the natural organism)
T4 sequence (P29564 2-231 limits assumed): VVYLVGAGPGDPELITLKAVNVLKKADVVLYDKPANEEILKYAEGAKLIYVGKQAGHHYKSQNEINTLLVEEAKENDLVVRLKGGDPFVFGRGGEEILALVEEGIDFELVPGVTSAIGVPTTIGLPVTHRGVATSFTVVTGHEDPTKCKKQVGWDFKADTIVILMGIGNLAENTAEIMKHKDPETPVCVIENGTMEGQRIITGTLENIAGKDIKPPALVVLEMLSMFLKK
As to the kind of experiment: Catalytic properties of purified M. ivanovii SUMT. The class given is biochemical. The protocol: Methanobacterium ivanovii strain DSM2611 is cultured as described (Souillard et al., 1988). Wet cells (12 g) are obtained. The latter are resuspended in 0.1 M Tris-HCl buffer pH 7.6 (80 ml) containing 5 mM DTT and 1 mM EDTA, and sonicated for 1 h 30 min at 4° C. and then centrifuged for 1 h at 50,000 g. Free tetrapyrrole compounds are then cleared from the extract by passage through a small DEAE-Sephadex A25 column set up in the same buffer. The proteins precipitating at between 55 and 75% ammonium sulphate saturation are solubilised in a 0.1 M Tris-HCl pH 7.5, 0.5 mM DTT, 1.7 M ammonium sulphate buffer and injected onto a Phenyl-Superose HR 10/10 (Pharmacia France/SA) column eluted with a decreasing gradient (1.7 M to 0 M with respect to ammonium sulphate). The active fractions are passed through a Sephadex G-25 column equilibrated with 0.1 M Tris-HCl pH 7.5, 0.5 mM DTT, 25% glycerol buffer (buffer A), then injected onto a Mono Q HR 5/5 (Pharmacia France SA) column equilibrated with buffer A and eluted with a KCl gradient of 0 to 0.3 M; this step is repeated a second time under the same conditions. Gel permeation chromatography of the active fraction of the preceding step on Bio-Sil TSK-250 (BioRad France SA) enables a protein which is homogeneous in SDS-PAGE and in RP-HPLC (C-18 pBondapak) to be obtained. The different steps of purification, with their yield, as well as their purification factor, are described in the table below.
As shown in this table, the total purification factor is more than 4,500. Some properties of the pure enzyme have been studied according to methods already described (Blanche et al., 1989). This enzyme does indeed have SUMT activity, i.e. it does indeed catalyse the SAM-dependant transfer of two methyl groups at C-2 and at C-7 of uro'gen III.
The Vmax of M. ivanovii SUMT was determined. It is 1537 U/mg of proteins. This value is greater than that found for P. denitrificans SUMT, already determined under optimal conditions for the reaction (taking account of its inhibition by uro'gen III), 489 U/mg of proteins (Blanche et al., 1989).

T1 sequence (P29936 whole entry): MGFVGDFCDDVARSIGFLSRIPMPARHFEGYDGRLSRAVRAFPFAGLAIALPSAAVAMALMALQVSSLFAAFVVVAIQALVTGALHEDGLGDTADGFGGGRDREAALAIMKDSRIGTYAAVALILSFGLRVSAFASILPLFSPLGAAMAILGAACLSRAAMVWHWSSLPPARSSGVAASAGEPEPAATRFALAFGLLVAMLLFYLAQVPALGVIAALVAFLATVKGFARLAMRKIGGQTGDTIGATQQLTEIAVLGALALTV

Broadly, the Km is the substrate concentration at which the rate is half of its maximum. In the case of `Cc1cc2ncn([C@H]3O[C@H](COP(=O)(O)O)[C@@H](O)[C@H]3O)c2cc1C` [α-ribazole 5′-phosphate], in data set [1], the Km was roughly 2.7 µM.

Consider `c1ccc2[nH]cnc2c1` [Benzimidazole], for which the “reaction rate compared to the natural substrate (5,6-dimethylbenzimidazole)” value in data set [2] amounted to 157%.

Turning to `NC(=O)C1=CN([C@@H]2O[C@H](COP(=O)(O)OP(=O)(O)OC[C@H]3O[C@@H](n4cnc5c(N)ncnc54)[C@H](O)[C@@H]3O)[C@@H](O)[C@H]2O)C=CC1` [NADH], at precorrin-6x reductase, the “cofactor for reduction of precorrin-6x” value is listed as “NADPH cannot be replaced by NADH”.

On to `Cc1cc2ncn([C@H]3O[C@H](CO)[C@@H](O)[C@H]3O)c2cc1C` [α-ribazole], for which the Km in data set [1] worked out at 7.8 µM.

As for `Cc1ccc2nc[nH]c2c1` [5-methylbenzimidazole], in data set [2], the “reaction rate compared to the natural substrate (5,6-dimethylbenzimidazole)” value was 92%.

In the case of `NC(=O)C1=CN([C@@H]2O[C@H](COP(=O)(O)OP(=O)(O)OC[C@H]3O[C@@H](n4cnc5c(N)ncnc54)[C@H](OP(=O)(O)O)[C@@H]3O)[C@@H](O)[C@H]2O)C=CC1` [NADPH], the “cofactor for reduction of precorrin-6x” value at precorrin-6x reductase is recorded as “strictly NADPH-dependant”.

As to GDP-cobinamide [(Ado)GDP-cobinamide], in data set [1], the Michaelis constant (Km) stood at 0.9 µM.

B1: M. ivanovii SUMT: SAM:uro'gen III methyltransferase purified from Methanobacterium ivanovii, encoded by corA (protein)
chain: MVVYLVGAGPGDPELITLKAVNVLKKADVVLYDKPANEEILKYAEGAKLIYVGKQAGHHYKSQNEINTLLVEEAKENDLVVRLKGGDPFVFGRGGEEILALVEEGIDFELVPGVTSAIGVPTTIGLPVTHRGVATSFTVVTGHEDPTKCKKQVGWDFKADTIVILMGIGNLAENTAEIMKHKDPETPVCVIENGTMEGQRIITGTLENIAGKDIKPPALVVLEMLSMFLKK
In the case of B1, in data set [3], the Vmax is recorded as 1537 U/mg of proteins.

These data come from patent publication US6656709B1, “Methods of increasing the production of cobalamins using cob gene expression” (priority 1990, dated 2003).
